The source of these data is patent US20240360082A1, “SUBSTITUTED PYRIDONE COMPOUNDS USEFUL TO TREAT ORTH[…]” (priority 2021, published 2024).

In the first assay the target is influenza A virus minigenome (PB2, PB1, PA, NP proteins) (UniProt P04665). The class given is cell-based. The settings on record: read-out: RNP_ Hubei B IC50.
influenza A virus minigenome (PB2, PB1, PA, NP proteins), sequence (P04665 whole entry): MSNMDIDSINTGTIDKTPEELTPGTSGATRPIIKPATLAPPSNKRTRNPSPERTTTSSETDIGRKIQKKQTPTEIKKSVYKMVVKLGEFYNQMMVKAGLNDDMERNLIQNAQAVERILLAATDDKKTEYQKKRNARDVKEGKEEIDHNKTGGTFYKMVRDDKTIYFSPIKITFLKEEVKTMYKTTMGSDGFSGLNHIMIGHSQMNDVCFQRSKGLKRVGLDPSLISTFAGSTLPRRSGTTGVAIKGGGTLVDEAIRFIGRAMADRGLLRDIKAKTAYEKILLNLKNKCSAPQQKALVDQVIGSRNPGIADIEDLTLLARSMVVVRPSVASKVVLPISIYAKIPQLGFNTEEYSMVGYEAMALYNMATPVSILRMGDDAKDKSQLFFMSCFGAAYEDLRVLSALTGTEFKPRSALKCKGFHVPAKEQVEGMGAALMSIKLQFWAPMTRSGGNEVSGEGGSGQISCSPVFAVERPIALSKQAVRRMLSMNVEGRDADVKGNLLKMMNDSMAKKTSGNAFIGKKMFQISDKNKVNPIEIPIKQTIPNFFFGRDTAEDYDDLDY
Consider `NC(=O)c1cc(-c2ccc(OCC3COCC(C(F)F)O3)cc2)c(C(F)(F)F)[nH]c1=O` (single isomer, unassigned) [Example 349, 5-(4-((6-(difluoromethyl)-1,4-dioxan-2-yl)methoxy)phenyl)-2-oxo-6-(trifluoromethyl)-1,2-dihydropyridine-3-carboxamide], for which the IC50 is 5 to 10 µM.

For the compound `COC1(C2COCC(COc3ccc(-c4cc(C(N)=O)c(=O)[nH]c4C(F)(F)F)cc3)O2)CC1` (single isomer, unassigned) [Example 353, 5-(4-((6-(1-methoxycyclopropyl)-1,4-dioxan-2-yl)methoxy)phenyl)-2-oxo-6-(trifluoromethyl)-1,2-dihydropyridine-3-carboxamide], the IC50 lay in the range of 5 to 10 µM.

Regarding `CC(C)(O)C1COCC(COc2ccc(-c3cc(C(N)=O)c(=O)[nH]c3C(F)(F)F)cc2)O1` (single isomer, unassigned) [Example 354, 5-(4-((6-(2-hydroxypropan-2-yl)-1,4-dioxan-2-yl)methoxy)phenyl)-2-oxo-6-(trifluoromethyl)-1,2-dihydropyridine-3-carboxamide], the IC50 was in the range of 5 to 10 µM.

On to `CC(C)(O)C1COCC(COc2ccc(-c3cc(C(N)=O)c(=O)[nH]c3C(F)(F)F)cc2)O1` (single isomer, unassigned) [Example 355, 5-(4-((6-(2-hydroxypropan-2-yl)-1,4-dioxan-2-yl)methoxy)phenyl)-2-oxo-6-(trifluoromethyl)-1,2-dihydropyridine-3-carboxamide], for which the IC50 lay within 5 to 10 µM.

Regarding `CC1(C2COCC(COc3ccc(-c4cc(C(N)=O)c(=O)[nH]c4C(F)(F)F)cc3)O2)CC1` (single isomer, unassigned) [Example 356, 5-(4-((6-(1-methylcyclopropyl)-1,4-dioxan-2-yl)methoxy)phenyl)-2-oxo-6-(trifluoromethyl)-1,2-dihydropyridine-3-carboxamide], the IC50 lay in the range of 5 to 10 µM.

For `CC(F)(F)C1COCC(COc2ccc(-c3cc(C(N)=O)c(=O)[nH]c3C(F)(F)F)cc2)O1` (single isomer, unassigned) [Example 358, 5-(4-((6-(1,1-difluoroethyl)-1,4-dioxan-2-yl)methoxy)phenyl)-2-oxo-6-(trifluoromethyl)-1,2-dihydropyridine-3-carboxamide], the IC50 was 5 to 10 µM.

As to `CC(F)(F)C1COCC(COc2ccc(-c3cc(C(N)=O)c(=O)[nH]c3C(F)(F)F)cc2)O1` (single isomer, unassigned) [Example 359, 5-(4-((6-(1,1-difluoroethyl)-1,4-dioxan-2-yl)methoxy)phenyl)-2-oxo-6-(trifluoromethyl)-1,2-dihydropyridine-3-carboxamide], the IC50 lay within 5 to 10 µM.

Consider `CCOCC1COCC(COc2ccc(-c3cc(C(N)=O)c(=O)[nH]c3C(F)(F)F)cc2)O1` (single isomer, unassigned) [Example 361, 5-(4-((6-(ethoxymethyl)-1,4-dioxan-2-yl)methoxy)phenyl)-2-oxo-6-(trifluoromethyl)-1,2-dihydropyridine-3-carboxamide], for which the IC50 fell in the range of 5 to 10 µM.

Regarding `NC(=O)c1cc(-c2ccc(OCC3COCC(COCC4CC4)O3)cc2)c(C(F)(F)F)[nH]c1=O` (single isomer, unassigned) [Example 362, 5-(4-((6-((cyclopropylmethoxy)methyl)-1,4-dioxan-2-yl)methoxy)phenyl)-2-oxo-6-(trifluoromethyl)-1,2-dihydropyridine-3-carboxamide], the IC50 lay in the range of 5 to 10 µM.

For `NC(=O)c1cc(-c2ccc(OCC3COCC(COCC4CC4)O3)cc2)c(C(F)(F)F)[nH]c1=O` (single isomer, unassigned) [Example 363, 5-(4-((6-((cyclopropylmethoxy)methyl)-1,4-dioxan-2-yl)methoxy)phenyl)-2-oxo-6-(trifluoromethyl)-1,2-dihydropyridine-3-carboxamide], the IC50 lay in the range of 5 to 10 µM.

`NC(=O)c1cc(-c2ccc(OCC3COCC(COCC4(F)CC4)O3)cc2)c(C(F)(F)F)[nH]c1=O` (single isomer, unassigned) [Example 364, 5-(4-((6-(((1-fluorocyclopropyl)methoxy)methyl)-1,4-dioxan-2-yl)methoxy)phenyl)-2-oxo-6-(trifluoromethyl)-1,2-dihydropyridine-3-carboxamide]: the IC50 is 5 to 10 µM.

`NC(=O)c1cc(-c2ccc(OCC3COCC(COCC4(F)CC4)O3)cc2)c(C(F)(F)F)[nH]c1=O` (single isomer, unassigned) [Example 365, 5-(4-((6-(((1-fluorocyclopropyl)methoxy)methyl)-1,4-dioxan-2-yl)methoxy)phenyl)-2-oxo-6-(trifluoromethyl)-1,2-dihydropyridine-3-carboxamide]: the IC50 was in the range of 5 to 10 µM.

For `NC(=O)c1cc(-c2ccc(OCC3COCC(COC4CC(F)(F)C4)O3)cc2)c(C(F)(F)F)[nH]c1=O` (single isomer, unassigned) [Example 366, 5-(4-((6-((3,3-difluorocyclobutoxy)methyl)-1,4-dioxan-2-yl)methoxy)phenyl)-2-oxo-6-(trifluoromethyl)-1,2-dihydropyridine-3-carboxamide], the IC50 lay in the range of 5 to 10 µM.

Turning to `NC(=O)c1cc(-c2ccc(OCC3COCC(COC4CC(F)(F)C4)O3)cc2)c(C(F)(F)F)[nH]c1=O` (single isomer, unassigned) [Example 367, 5-(4-((6-((3,3-difluorocyclobutoxy)methyl)-1,4-dioxan-2-yl)methoxy)phenyl)-2-oxo-6-(trifluoromethyl)-1,2-dihydropyridine-3-carboxamide], the IC50 lay in the range of 5 to 10 µM.

`NC(=O)c1cc(-c2ccc(OCC3COCC(COCC(F)F)O3)cc2)c(C(F)(F)F)[nH]c1=O` (single isomer, unassigned) [Example 368, 5-(4-((6-((2,2-difluoroethoxy)methyl)-1,4-dioxan-2-yl)methoxy)phenyl)-2-oxo-6-(trifluoromethyl)-1,2-dihydropyridine-3-carboxamide]: the IC50 fell in the range of 5 to 10 µM.

With `NC(=O)c1cc(-c2ccc(OCC3COCC(COCC(F)F)O3)cc2)c(C(F)(F)F)[nH]c1=O` (single isomer, unassigned) [Example 369, 5-(4-((6-((2,2-difluoroethoxy)methyl)-1,4-dioxan-2-yl)methoxy)phenyl)-2-oxo-6-(trifluoromethyl)-1,2-dihydropyridine-3-carboxamide], the IC50 lay within 5 to 10 µM.

As to `COC(C)(C)COCC1COCC(COc2ccc(-c3cc(C(N)=O)c(=O)[nH]c3C(F)(F)F)cc2)O1` (single isomer, unassigned) [Example 370, 5-(4-((6-((2-methoxy-2-methylpropoxy)methyl)-1,4-dioxan-2-yl)methoxy)phenyl)-2-oxo-6-(trifluoromethyl)-1,2-dihydropyridine-3-carboxamide], the IC50 fell in the range of 5 to 10 µM.

On to `COC(C)(C)COCC1COCC(COc2ccc(-c3cc(C(N)=O)c(=O)[nH]c3C(F)(F)F)cc2)O1` (single isomer, unassigned) [Example 371, 5-(4-((6-((2-methoxy-2-methylpropoxy)methyl)-1,4-dioxan-2-yl)methoxy)phenyl)-2-oxo-6-(trifluoromethyl)-1,2-dihydropyridine-3-carboxamide], for which the IC50 fell in the range of 5 to 10 µM.

As for `NC(=O)c1cc(-c2ccc(OCC3COCC(COC(F)(F)F)O3)cc2)c(C(F)(F)F)[nH]c1=O` (single isomer, unassigned) [Example 372, 2-oxo-5-(4-((6-((trifluoromethoxy)methyl)-1,4-dioxan-2-yl)methoxy)phenyl)-6-(trifluoromethyl)-1,2-dihydropyridine-3-carboxamide], the IC50 was in the range of 1 to 5 µM.

Consider `NC(=O)c1cc(-c2ccc(OCC3COCC(COC(F)(F)F)O3)cc2)c(C(F)(F)F)[nH]c1=O` (single isomer, unassigned) [Example 373, 2-oxo-5-(4-((6-((trifluoromethoxy)methyl)-1,4-dioxan-2-yl)methoxy)phenyl)-6-(trifluoromethyl)-1,2-dihydropyridine-3-carboxamide], for which the IC50 fell in the range of 5 to 10 µM.

For the compound `NC(=O)c1cc(-c2ccc(OCC3COCC(Cn4cccc4)O3)cc2)c(C(F)(F)F)[nH]c1=O` (single isomer, unassigned) [Example 374, 5-(4-((6-((1H-pyrrol-1-yl)methyl)-1,4-dioxan-2-yl)methoxy)phenyl)-2-oxo-6-(trifluoromethyl)-1,2-dihydropyridine-3-carboxamide], the IC50 is 5 to 10 µM.

As for `NC(=O)c1cc(-c2ccc(OCC3COCC(Cn4cccc4)O3)cc2)c(C(F)(F)F)[nH]c1=O` (single isomer, unassigned) [Example 375, 5-(4-((6-((1H-pyrrol-1-yl)methyl)-1,4-dioxan-2-yl)methoxy)phenyl)-2-oxo-6-(trifluoromethyl)-1,2-dihydropyridine-3-carboxamide], the IC50 is 5 to 10 µM.

In the case of `NC(=O)c1cc(-c2ccc(OCC3COCC(Cn4cccn4)O3)cc2)c(C(F)(F)F)[nH]c1=O` (single isomer, unassigned) [Example 376, 5-(4-((6-((1H-pyrazol-1-yl)methyl)-1,4-dioxan-2-yl)methoxy)phenyl)-2-oxo-6-(trifluoromethyl)-1,2-dihydropyridine-3-carboxamide], the IC50 was 5 to 10 µM.

On to `NC(=O)c1cc(-c2ccc(OCC3COCC(Cn4cccn4)O3)cc2)c(C(F)(F)F)[nH]c1=O` (single isomer, unassigned) [Example 377, 5-(4-((6-((1H-pyrazol-1-yl)methyl)-1,4-dioxan-2-yl)methoxy)phenyl)-2-oxo-6-(trifluoromethyl)-1,2-dihydropyridine-3-carboxamide], for which the IC50 lay within 5 to 10 µM.

Still in this assay, the particulars now being: read-out: RNP_Hubei B.
Turning to `CC1(C2COCC(COc3ccc(-c4cc(C(N)=O)c(=O)[nH]c4C(F)(F)F)cc3)O2)CC1` (single isomer, unassigned) [Example 357, 5-(4-((6-(1-methylcyclopropyl)-1,4-dioxan-2-yl)methoxy)phenyl)-2-oxo-6-(trifluoromethyl)-1,2-dihydropyridine-3-carboxamide], the IC50 lay in the range of 5 to 10 µM.

Turning to `CCOCC1COCC(COc2ccc(-c3cc(C(N)=O)c(=O)[nH]c3C(F)(F)F)cc2)O1` (single isomer, unassigned) [Example 360, 5-(4-((6-(ethoxymethyl)-1,4-dioxan-2-yl)methoxy)phenyl)-2-oxo-6-(trifluoromethyl)-1,2-dihydropyridine-3-carboxamide], the IC50 was 5 to 10 µM.
